Reference: paper PMC8154156 (ACS Omega, 2021)

Columns and labels:
T5 exonuclease (T5E) [1] = target: T1, T5 exonuclease (T5E) (Escherichia phage T5, UniProt P06229); test: agarose gel, degradation of; assay type: biochemical; details: high nucleotide concentrations
T1 sequence (P06229 2-291): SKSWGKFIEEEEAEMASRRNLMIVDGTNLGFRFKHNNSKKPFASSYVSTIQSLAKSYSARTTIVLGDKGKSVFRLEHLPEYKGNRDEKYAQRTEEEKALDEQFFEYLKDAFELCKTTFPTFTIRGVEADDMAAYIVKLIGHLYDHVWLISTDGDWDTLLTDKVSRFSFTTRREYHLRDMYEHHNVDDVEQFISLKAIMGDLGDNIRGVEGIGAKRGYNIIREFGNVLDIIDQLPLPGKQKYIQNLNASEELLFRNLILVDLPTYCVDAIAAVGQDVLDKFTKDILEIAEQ

[2] = target: T2, E. coli DNA topoisomerase I (EcTopI) (Escherichia coli, UniProt P06612); test: agarose gel DNA relaxation assay; assay type: biochemical
T2 sequence (P06612 1-865): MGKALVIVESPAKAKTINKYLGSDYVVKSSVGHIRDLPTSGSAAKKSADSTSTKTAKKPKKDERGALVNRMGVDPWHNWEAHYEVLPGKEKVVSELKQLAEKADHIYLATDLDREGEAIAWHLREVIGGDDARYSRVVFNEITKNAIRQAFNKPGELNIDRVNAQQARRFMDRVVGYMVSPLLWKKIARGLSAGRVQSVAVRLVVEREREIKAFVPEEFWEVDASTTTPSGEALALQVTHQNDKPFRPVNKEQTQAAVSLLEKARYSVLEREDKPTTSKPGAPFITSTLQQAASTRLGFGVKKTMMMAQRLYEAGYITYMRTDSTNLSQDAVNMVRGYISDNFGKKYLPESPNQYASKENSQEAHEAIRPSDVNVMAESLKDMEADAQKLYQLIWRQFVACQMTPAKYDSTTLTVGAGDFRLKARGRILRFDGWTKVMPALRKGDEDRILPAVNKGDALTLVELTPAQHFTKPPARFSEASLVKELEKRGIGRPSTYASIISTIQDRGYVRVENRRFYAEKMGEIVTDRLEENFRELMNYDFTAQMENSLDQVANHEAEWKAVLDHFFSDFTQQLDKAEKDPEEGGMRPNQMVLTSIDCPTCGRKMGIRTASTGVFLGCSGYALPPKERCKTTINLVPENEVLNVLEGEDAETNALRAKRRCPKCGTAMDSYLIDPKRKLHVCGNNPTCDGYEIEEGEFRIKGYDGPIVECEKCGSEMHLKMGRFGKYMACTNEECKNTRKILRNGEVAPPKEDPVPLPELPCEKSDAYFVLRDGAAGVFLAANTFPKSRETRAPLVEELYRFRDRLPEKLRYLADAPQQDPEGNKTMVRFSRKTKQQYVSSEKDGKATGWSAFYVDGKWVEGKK

[3] = target: variola DNA topoisomerase I (vTopI) (Variola virus human/India/Ind3/1967, UniProt P32989)
Sequence of variola DNA topoisomerase I (vTopI) (P32989 whole entry, looked up): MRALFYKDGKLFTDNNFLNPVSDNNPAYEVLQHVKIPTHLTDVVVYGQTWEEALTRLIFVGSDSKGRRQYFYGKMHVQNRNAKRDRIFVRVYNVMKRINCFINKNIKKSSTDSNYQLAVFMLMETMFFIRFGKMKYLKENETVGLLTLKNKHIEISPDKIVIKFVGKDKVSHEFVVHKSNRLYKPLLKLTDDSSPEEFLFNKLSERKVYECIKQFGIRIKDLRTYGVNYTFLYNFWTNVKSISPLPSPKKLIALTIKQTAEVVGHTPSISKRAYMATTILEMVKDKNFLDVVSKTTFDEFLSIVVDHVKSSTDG

T5 exonuclease (T5E) [4] = target: T1, T5 exonuclease (T5E); test: flap endonuclease activity assay; assay type: biochemical

SMILES | agarose gel, degradation of (-) sc pAB1 (T5 exonuclease (T5E) [1]) | other results
Nc1ncnc2c1ncn2[C@@H]1O[C@H](COP(=O)(O)OP(=O)(O)OP(=O)(O)O)[C@@H](O)[C@H]1O [ATP] | high concentrations of ATP, GTP, CTP, and UTP inhibited the degradation of (−) sc pAB1 | 
Nc1ccn([C@@H]2O[C@H](COP(=O)(O)OP(=O)(O)OP(=O)(O)O)[C@@H](O)[C@H]2O)c(=O)n1 [CTP] | high concentrations of ATP, GTP, CTP, and UTP inhibited the degradation of (−) sc pAB1 | 
Nc1nc2c(ncn2[C@@H]2O[C@H](COP(=O)(O)OP(=O)(O)OP(=O)(O)O)[C@@H](O)[C@H]2O)c(=O)[nH]1 [GTP] | high concentrations of ATP, GTP, CTP, and UTP inhibited the degradation of (−) sc pAB1 | 
O=C1C=C(NCCc2cc(Br)c(O)c(Br)c2)C(=O)c2ncccc21 [NSC668394] |  | IC50 [2]: 8 ± 0.2 µM
O=c1ccn([C@@H]2O[C@H](COP(=O)(O)OP(=O)(O)OP(=O)(O)O)[C@@H](O)[C@H]2O)c(=O)[nH]1 [UTP] | high concentrations of ATP, GTP, CTP, and UTP inhibited the degradation of (−) sc pAB1 | 
Cc1ccc(C(=O)Nc2ccc(S(=O)(=O)O)c3cc(S(=O)(=O)O)cc(S(=O)(=O)O)c23)cc1NC(=O)c1cccc(NC(=O)Nc2cccc(C(=O)Nc3cc(C(=O)Nc4ccc(S(=O)(=O)O)c5cc(S(=O)(=O)O)cc(S(=O)(=O)O)c45)ccc3C)c2)c1 [suramin] |  | T5 exonuclease-based fluorescence HTS at 20 μM [3]: The only positive hit is the polynegatively charged suramin (Figure S6b); IC50 (T5 exonuclease (T5E) [4]): 22.6 µM
